From patent publication US20250381243A1, “HETEROCYCLES AND USES THEREOF” (Kumquat Biosciences Inc., priority 2022, published 2025)
Like-named read-outs stand apart in the source and are kept apart here.

Test system: A549 cells
Assay: Cell proliferation assay (CellTiter-Glo), cells with K-Ras G12S mutation
Type: cell-based
Settings: Homo sapiens, read-out: Inhibition of A549 Cells (IC50)
Summary of the method: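 A549 (K-Ras G12S) cells in RPMI-1640 with 10% heat-inactivated FBS, plated in standard or ultra-low-attachment 384-well format, treated next day with a dilution series (e.g., 10-point, 3-fold). Viability read by CellTiter-Glo luminescence about 6 days later; IC50 from four-parameter fit.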

SMILES	IC50 (≤500 nM) [nM]	IC50 (500 nM to 5 μM (mixed units)) [nM]
CN(C[C@@H]1CN(C(=O)n2cnc(F)n2)[C@@H]1C1(CF)CC1)c1nc(OC[C@@]23CCCN2C[C@H](F)C3)nc2c(F)c(-c3ccc(F)c4sc(N)c(C#N)c34)c(Cl)cc12 [Compound 148, 2-amino-4-(6-chloro-8-fluoro-4-((((2S,3R)-1-(3-fluoro-1H-1,2,4-triazole-1-carbonyl)-2-(1-(fluoromethyl)cyclopropyl)azetidin-3-yl)methyl)(methyl)amino)-2-(((2R,7aS)-2-fluorotetrahydro-1H-pyrrolizin-7a(5H)-yl)methoxy)quinazolin-7-yl)-7-fluorobenzo[b]thiophene-3-carbonitrile]	≤ 500	–
CCN(C(=O)n1cnc(Cl)n1)C1CCN(c2nc(OC[C@@]34CCCN3C[C@H](F)C4)nc3c(F)c(-c4ccc(F)c5sc(N)c(C#N)c45)c(Cl)cc23)C1C (stereo partly drawn) [Compound 149, N-(1-(7-(2-amino-3-cyano-7-fluorobenzo[b]thiophen-4-yl)-6-chloro-8-fluoro-2-(((2R,7aS)-2-fluorotetrahydro-1H-pyrrolizin-7a(5H)-yl)methoxy)quinazolin-4-yl)-2-methylpyrrolidin-3-yl)-3-chloro-N-ethyl-1H-1,2,4-triazole-1-carboxamide]	–	500 to 5000
N#Cc1c(N)sc2c(F)ccc(-c3c(Cl)cc4c(N5CCCC(N(C(=O)n6cnc(Cl)n6)C6CC6)C5)nc(OC[C@@]56CCCN5C[C@H](F)C6)nc4c3F)c12 (stereo partly drawn) [Compound 151, N-(1-(7-(2-amino-3-cyano-7-fluorobenzo[b]thiophen-4-yl)-6-chloro-8-fluoro-2-(((2R,7aS)-2-fluorotetrahydro-1H-pyrrolizin-7a(5H)-yl)methoxy)quinazolin-4-yl)piperidin-3-yl)-3-chloro-N-cyclopropyl-1H-1,2,4-triazole-1-carboxamide]	–	500 to 5000
CN(C[C@@H]1CN(C(=O)n2cnc(F)n2)[C@@H]1C(C)(C)C)c1nc(OC[C@@]23CCCN2C[C@H](F)C3)nc2c(F)c(-c3ccc(F)c4sc(N)c(C#N)c34)c(Cl)cc12 [Compound 152, 2-amino-4-(4-((((2S,3R)-2-(tert-butyl)-1-(3-fluoro-1H-1,2,4-triazole-1-carbonyl)azetidin-3-yl)methyl)(methyl)amino)-6-chloro-8-fluoro-2-(((2R,7aS)-2-fluorotetrahydro-1H-pyrrolizin-7a(5H)-yl)methoxy)quinazolin-7-yl)-7-fluorobenzo[b]thiophene-3-carbonitrile]	≤ 500	–
CC(C)[C@H]1N(C(=O)n2cnc(Cl)n2)C[C@]12CC[C@@H](C)N(c1nc(OC[C@@]34CCCN3C[C@H](F)C4)nc3c(F)c(-c4ccc(F)c5sc(N)c(C#N)c45)c(Cl)cc13)C2 [Compound 153, 2-amino-4-(6-chloro-4-((1R,4R,7R)-2-(3-chloro-1H-1,2,4-triazole-1-carbonyl)-1-isopropyl-7-methyl-2,6-diazaspiro[3.5]nonan-6-yl)-8-fluoro-2-(((2R,7aS)-2-fluorotetrahydro-1H-pyrrolizin-7a(5H)-yl)methoxy)quinazolin-7-yl)-7-fluorobenzo[b]thiophene-3-carbonitrile]	–	500 to 5000
CCN(C[C@@H]1CN(C(=O)n2cnc(Cl)n2)[C@@H]1C(C)C)c1nc(OC[C@@]23CCCN2C[C@H](F)C3)nc2c(F)c(-c3ccc(F)c4sc(N)c(C#N)c34)c(Cl)cc12 [Compound 154, 2-amino-4-(6-chloro-4-((((2R,3R)-1-(3-chloro-1H-1,2,4-triazole-1-carbonyl)-2-isopropylazetidin-3-yl)methyl)(ethyl)amino)-8-fluoro-2-(((2R,7aS)-2-fluorotetrahydro-1H-pyrrolizin-7a(5H)-yl)methoxy)quinazolin-7-yl)-7-fluorobenzo[b]thiophene-3-carbonitrile]	≤ 500	–
N#Cc1c(N)sc2c(F)ccc(-c3c(Cl)cc4c(N5CCOC6(C5)CN(C(=O)n5cncn5)C6C5CC5)nc(OC[C@@]56CCCN5C[C@H](F)C6)nc4c3F)c12 (stereo partly drawn) [Compound 156, 2-amino-4-(6-chloro-4-(1-cyclopropyl-2-(1H-1,2,4-triazole-1-carbonyl)-5-oxa-2,8-diazaspiro[3.5]nonan-8-yl)-8-fluoro-2-(((2R,7aS)-2-fluorotetrahydro-1H-pyrrolizin-7a(5H)-yl)methoxy)quinazolin-7-yl)-7-fluorobenzo[b]thiophene-3-carbonitrile]	–	500 to 5000
CC(C)[C@H]1N(C(=O)n2cnc(C(F)(F)F)n2)C[C@@]12CN(c1nc(OC[C@@]34CCCN3C[C@H](F)C4)nc3c(F)c(-c4ccc(F)c5sc(N)c(C#N)c45)c(Cl)cc13)CCO2 [Compound 160, 2-amino-4-(6-chloro-8-fluoro-2-(((2R,7aS)-2-fluorotetrahydro-1H-pyrrolizin-7a(5H)-yl)methoxy)-4-((1R,4S)-1-isopropyl-2-(3-(trifluoromethyl)-1H-1,2,4-triazole-1-carbonyl)-5-oxa-2,8-diazaspiro[3.5]nonan-8-yl)quinazolin-7-yl)-7-fluorobenzo[b]thiophene-3-carbonitrile]	≤ 500	–
CN(C(=O)n1cncn1)C1CCCCN(c2nc(OC[C@@]34CCCN3C[C@H](F)C4)nc3c(F)c(-c4ccc(F)c5sc(N)c(C#N)c45)c(Cl)cc23)C1 (stereo partly drawn) [Compound 161, N-(1-(7-(2-amino-3-cyano-7-fluorobenzo[b]thiophen-4-yl)-6-chloro-8-fluoro-2-(((2R,7aS)-2-fluorotetrahydro-1H-pyrrolizin-7a(5H)-yl)methoxy)quinazolin-4-yl)azepan-3-yl)-N-methyl-1H-1,2,4-triazole-1-carboxamide]	≤ 500	–
CC(C)[C@H]1N(C(=O)n2cnc(C(F)F)n2)C[C@]12CCCN(c1nc(OC[C@@]34CCCN3C[C@H](F)C4)nc3c(F)c(-c4ccc(F)c5sc(N)c(C#N)c45)c(Cl)cc13)C2 [Compound 165, 2-amino-4-(6-chloro-4-((1R,4R)-2-(3-(difluoromethyl)-1H-1,2,4-triazole-1-carbonyl)-1-isopropyl-2,6-diazaspiro[3.5]nonan-6-yl)-8-fluoro-2-(((2R,7aS)-2-fluorotetrahydro-1H-pyrrolizin-7a(5H)-yl)methoxy)quinazolin-7-yl)-7-fluorobenzo[b]thiophene-3-carbonitrile]	≤ 500	–
N#CCCN(C(=O)n1cncn1)C1CCCN(c2nc(OC[C@@]34CCCN3C[C@H](F)C4)nc3c(F)c(-c4ccc(F)c5sc(N)c(C#N)c45)c(Cl)cc23)CC1 (stereo partly drawn) [Compound 166, N-(1-(7-(2-amino-3-cyano-7-fluorobenzo[b]thiophen-4-yl)-6-chloro-8-fluoro-2-(((2R,7aS)-2-fluorotetrahydro-1H-pyrrolizin-7a(5H)-yl)methoxy)quinazolin-4-yl)azepan-4-yl)-N-(2-cyanoethyl)-1H-1,2,4-triazole-1-carboxamide]	–	500 to 5000
CC([C@H]1CCN1C(=O)n1cnc(Cl)n1)N(C)c1nc(OC[C@@]23CCCN2C[C@H](F)C3)nc2c(F)c(-c3ccc(F)c4sc(N)c(C#N)c34)c(Cl)cc12 (stereo partly drawn) [Compound 172, (4R)-2-amino-4-(6-chloro-4-((1-(1-(3-chloro-1H-1,2,4-triazole-1-carbonyl)azetidin-2-yl)ethyl)(methyl)amino)-8-fluoro-2-(((2R,7aS)-2-fluorotetrahydro-1H-pyrrolizin-7a (5H)-yl)methoxy)quinazolin-7-yl)-7-fluorobenzo[b]thiophene-3-carbonitrile]	–	500 to 5000
